Results reported in ChEMBL document CHEMBL4229452, “Expanding chemical space of DNA-binding molecules with three base-binding units” (Bioorg Med Chem Lett, 2018).
Calls of active or inactive are those of the source. The calls are words filed in the database; no cut-off is given here.

Assays:
Format in all cases: nucleic-acid assay
dsDNA [1] = assay: Binding affinity to 5'-(CTAA CGG AATG)-3'/5'-(CATT CGG TTAG)-3' duplex DNA (unknown origin) at 7.5 uM by fluorescence titration method
dsDNA [2] = assay: Binding affinity to 5'-(CTAA GGC AATG)-3'/5'-(CATT GGC TTAG)-3' duplex DNA (unknown origin) assessed as change in melting temperature at 20 uM by UV-spectrophotometric method
dsDNA [3] = assay: Binding affinity to 5'-(CTAA CGA AATG)-3'/5'-(CATT GGT TTAG)-3' duplex DNA (unknown origin) assessed as melting temperature at 5 uM by fluorimetric method
dsDNA [4] = assay: Binding affinity to 5'-(CTAA CGG AATG)-3'/5'-(CATT CGG TTAG)-3' duplex DNA (unknown origin) assessed as apparent association […] constant at 60 uM by isothermal titration calorimetric method
dsDNA [5] = assay: Binding affinity to 5'-(CTAA CGT AATG)-3'/5'-(CATT GGA TTAG)-3' duplex DNA (unknown origin) assessed as melting temperature at 5 uM by fluorimetric method
dsDNA [6] = assay: Binding affinity to 5'-(CTAA CGG AATG)-3'/5'-(CATT GGC TTAG)-3' duplex DNA (unknown origin) assessed as melting temperature at 5 uM by fluorimetric method
dsDNA [7] = assay: Binding affinity to 5'-(CTAA GGA AATG)-3'/5'-(CATT CGT TTAG)-3' duplex DNA (unknown origin) assessed as melting temperature at 5 uM by fluorimetric method
dsDNA [8] = assay: Binding affinity to 5'-(CTAA GGC AATG)-3'/5'-(CATT CGG TTAG)-3' duplex DNA (unknown origin) assessed as melting temperature at 5 uM by fluorimetric method
dsDNA [9] = assay: Binding affinity to 5'-(CTAA CGG AATG)-3'/5'-(CATT CGG TTAG)-3' duplex DNA (unknown origin) assessed as change in melting temperature at 20 uM by UV-spectrophotometric method
dsDNA [10] = assay: Binding affinity to 5'-(CTAA GGC AATG)-3'/5'-(CATT GGC TTAG)-3' duplex DNA (unknown origin) at 7.5 uM by fluorescence titration method
dsDNA [11] = assay: Binding affinity to 5'-(CTAA GGT AATG)-3'/5'-(CATT CGA TTAG)-3' duplex DNA (unknown origin) assessed as melting temperature at 5 uM by fluorimetric method
dsDNA [12] = assay: Binding affinity to 5'-(CTAA CGG AATG)-3'/5'-(CATT CGG TTAG)-3' duplex DNA (unknown origin) at < 10 uM by fluorescence titration method
dsDNA [13] = assay: Binding affinity to 5'-(CTAA GGC AATG)-3'/5'-(CATT GGC TTAG)-3' duplex DNA (unknown origin) at < 10 uM by fluorescence titration method

Activity (dsDNA [1])	ΔTm (dsDNA [2]) [°C]	Tm (dsDNA [3]) [°C]	Activity (dsDNA [4])	Tm (dsDNA [5]) [°C]	Tm (dsDNA [6]) [°C]	Tm (dsDNA [7]) [°C]	Tm (dsDNA [8]) [°C]	ΔTm (dsDNA [9]) [°C]	Activity (dsDNA [10])	Tm (dsDNA [11]) [°C]	Activity (dsDNA [12])	Activity (dsDNA [13])	Ka (dsDNA [4]) [×10⁷ /M]	Compound
Active	1.6	24.1	inactive	24.9	26.5	26.7	34.7	22.9	Active	27.1	–	–	–	Cc1ccc2ccc(NC(=O)OCCCN(CCCOC(=O)Nc3ccc4ccc(C)nc4n3)CCCOC(=O)Nc3ccc4ccc(C)nc4n3)nc2n1
–	2	–	–	–	–	–	–	23	–	–	Active	Active	2.09	Cc1ccc2ccc(NC(=O)OCCCNCCCOC(=O)Nc3ccc4ccc(C)nc4n3)nc2n1
